# In patent US12492212B2, “Substituted pyrazolecarboxamides as sting activators” (Shanghai Institute of Materia Medica, Chinese Academy of …, priority 2019, dated 2025):
# Columns and labels:
# STING [1] = target: T1, STING (Homo sapiens, UniProt Q86WV6); experiment: IFN β release from human PBMC cells stimulated by compound (ELISA); assay type: cell-based; conditions: LPS 10 ng/ml, cultured overnight
# T1 construct: host or cells: human PBMCs
# Protocol: Example 23: Activation Effect of Compound on Type I Interferon Pathway (ISG) Produced by Human Peripheral Blood Mononuclear Cell Line PBMC Cells
# In this experiment, the function of STING agonist was evaluated by detecting the changes of type I interferon IFN β produced by compound stimulating human peripheral blood mononuclear cell line PBMC cells (AllCells, Cat #: PB005F). Before use, cryopreserved PBMCs were thawed in RPMI1640 medium and resuscitated overnight. The test compound was dissolved into DMSO and formulated as a mother liquor with a concentration of 10 mM. Before testing, the compound was diluted to 100 times of the working concentration (the working concentration was 30, 10, 3.33, 1.11, 0.370, 0.123, 0.0412, 0.0137 uM, respectively). PBMCs were collected and adjusted to a cell concentration of 5×10^5/ml. LPS was added to PBMCs at a final concentration of 10 ng/ml. In the 96-well cell culture plate, 200 ul PBMCs (1×10^5 cells per well) were added to each well. Then 2 ul diluted compound per well (duplicate wells, the final concentration of DMSO in each well was 1%) was added. Then a pipette was used to carefully mix the cells and the compound evenly. 2 ul DMSO (1% of final concentration) was added to the negative control. The cells were cultured overnight in an incubator at 37° C. The cell culture supernatant was collected to detect the concentration of type I interferon IFN β. The concentration of IFNβ was determined by ELISA kit of solid-phase antibody R&D-MAB8144-100 and detecting antibody R&D-MAB8143-100 (Biotinylated), converted into […] concentration according to standard curve, and EC50 value was calculated by GraphPad 5.0 fitting calibration curve.
# STING [2] = target: T2, STING (Homo sapiens, UniProt Q86WV6, G230A/H232R/R293Q/R71H); experiment: Type I interferon pathway (ISG) luciferase reporter in human THP1-Dual cells; assay type: cell-based; conditions: test concentration 10 μM, 24 hours, ratio of LUM of compound to LUM of blank control
# T2 construct: THP1-Dual cells in the experiment were purchased from InvivoGen company; host or cells: THP1-Dual cells
# T2 sequence (Q86WV6 whole entry R71H/G230A/H232R/R293Q): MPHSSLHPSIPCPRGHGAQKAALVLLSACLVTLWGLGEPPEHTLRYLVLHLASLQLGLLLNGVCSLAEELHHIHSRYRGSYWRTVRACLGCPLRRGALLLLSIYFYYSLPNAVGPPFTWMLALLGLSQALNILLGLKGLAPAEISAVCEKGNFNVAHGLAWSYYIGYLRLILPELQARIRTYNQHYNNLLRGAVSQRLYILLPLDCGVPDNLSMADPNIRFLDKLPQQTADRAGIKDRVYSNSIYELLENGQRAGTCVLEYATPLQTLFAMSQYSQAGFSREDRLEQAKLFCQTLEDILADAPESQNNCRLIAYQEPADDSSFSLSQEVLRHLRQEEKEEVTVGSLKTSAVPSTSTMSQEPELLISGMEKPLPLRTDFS
# Protocol: In this experiment, the ability of compounds to activate STING was evaluated by detecting the ability of compounds to stimulate the production of IFN-β in human peripheral blood mononuclear cell line THP1-Dual cells. THP1-Dual cells in the experiment were purchased from InvivoGen company. […] THP1-Dual cells were counted, cell concentration was adjusted to be 1×10^6/ml, and 180 μl of cells was added to each well for incubation. […] In addition, the blank group was added with 200 μl of culture solution. After 24 hours, 20 μl of culture solution was took from each well to a new bottom transparent 96-well plate, and 50 μl luciferase detection reagent QUANTI-Luc™ was added, the fluorescence value was immediately determined. […] The data were described by the ratio of the LUM of compound to the LUM of blank control.
# CT26 colon cancer = CT26 colon cancer subcutaneous transplantation tumor model; assay type: in vivo, Balb/C female mice; conditions: CT26, Balb/C mice, 0.1 mg/kg and 0.3 mg/kg, 1st, 4th and 7th days after grouping, vs negative control, FIG. 1
# Protocol: Example 25: The Efficacy Study of the Compound of the Present Invention in the CT26 Colon Cancer Subcutaneous Transplantation Tumor Model
# In this experiment, 4-6 weeks old Balb/C female mice were used, and CT26 cells (2.5*10^5) were injected subcutaneously into axils of each mouse. The tumor growth of mice was observed. Grouping was started when the tumor volume was 50-100 mm^3. The compound 19 of the present invention and the negative control were administrated. The compound 19 of the present invention and the negative control were administrated on 1st, 4th and 7th days after grouping. The dosage of the compound 19 in each group was 0.1 mg/kg and 0.3 mg/kg respectively. The experimental results were evaluated in the form of tumor volume growth curves, and the experimental results were shown in FIG. 1.
# EMT6 breast cancer = EMT6 breast cancer orthotopic transplantation tumor model; assay type: in vivo, Balb/C female mice; conditions: EMT6, Balb/C mice, 1 mg/kg, 1st, 4th and 9th days after grouping, vs negative control, FIG. 2
# Protocol: Example 26: The Efficacy Study of the Compound of the Present Invention in the EMT6 Breast Cancer Orthotopic Transplantation Tumor Model
# In this experiment, 4-6 weeks old Balb/C female mice were used, and EMT6 cells (2.5*10^5) were injected subcutaneously into axils of each mouse. The tumor growth of mice was observed. Grouping was started when the tumor volume was 50-100 mm^3. The compound 19 of the present invention and the negative control were administrated on 1st, 4th and 9th days after grouping. The dosage of compound 19 of the present invention was 1 mg/kg. The experimental results were evaluated in the form of tumor volume growth curves, and the experimental results were shown in FIG. 2.
# T1 sequence (Q86WV6 whole entry H232R): as the sequence (Q86WV6 whole entry R71H/G230A/H232R/R293Q) above, with H71R, A230G, Q293R counted along it
Structure (SMILES),Fold change (Ratio to control) (STING [2]),other results
"CCn1nc(C)cc1C(=O)Nc1nc2cc(C(N)=O)cc(OC)c2n1CCCCn1c(NC(=O)c2cc(C)nn2CC)nc2cc(C(N)=O)c3c(c21)CC(C)(C)O3 [Example 1, 1-(4-(5-carbamoyl-2-(1-ethyl-3-methyl-1H-pyrazol-5-formamido)-7-methoxy-1H-benzo[d]imidazol-1-yl)butyl)-2-(1-ethyl-3-methyl-1H-pyrazol-5-formamido)-7,7-dimethyl-7,8-dihydro-1H-benzofuran[4,5-d]imidazol-5-formamide]",,EC50 (STING [1]): 362 nM
CCn1nc(C)cc1C(=O)Nc1nc2cc(C(N)=O)cc(OC)c2n1CCCCn1c(NC(=O)c2cc(C)nn2CC)nc2cc(C(N)=O)c3oc(C)cc3c21 [Example 2],53.15,EC50 (STING [1]): 103 nM
"CCn1nc(C)cc1C(=O)Nc1nc2cc(C(N)=O)cc(OC)c2n1C/C=C/Cn1c(NC(=O)c2cc(C)nn2CC)nc2cc(C(N)=O)c3oc(C)cc3c21 [Example 3, (E)-1-(4-(5-carbamoyl-2-(1-ethyl-3-methyl-1H-pyrazol-5-formamido)-7-methoxy-1H-benzo[d]imidazol-1-yl)but-2-en-1-yl)-2-(1-ethyl-3-methyl-1H-pyrazol-5-formamido)-7-methyl-1H-benzofuran[4,5-d]imidazol-5-formamide]",62.82,EC50 (STING [1]): 4.92 nM
COc1cc(C(N)=O)cc2nc(NC(=O)c3cc(C)nn3CC3CC3)n(C/C=C/Cn3c(NC(=O)c4cc(C)nn4CC4CC4)nc4cc(C(N)=O)c5oc(C)cc5c43)c12 [Example 5],66.65,
COc1cc(C(N)=O)cc2nc(NC(=O)c3cc(C)nn3CC(F)(F)F)n(C/C=C/Cn3c(NC(=O)c4cc(C)nn4CC(F)(F)F)nc4cc(C(N)=O)c5oc(C)cc5c43)c12 [Example 6],86.31,
C=CCn1nc(C)cc1C(=O)Nc1nc2cc(C(N)=O)cc(OCCCO)c2n1C/C=C/Cn1c(NC(=O)c2cc(C)nn2CC=C)nc2cc(C(N)=O)c3oc(C)cc3c21 [Example 9],148.64,
C#CCn1nc(C)cc1C(=O)Nc1nc2cc(C(N)=O)cc(OCCCO)c2n1C/C=C/Cn1c(NC(=O)c2cc(C)nn2CC#C)nc2cc(C(N)=O)c3oc(C)cc3c21 [Example 10],13.14,
C=CCn1nc(C)cc1C(=O)Nc1nc2cc(C(N)=O)cc(OC3COC3)c2n1C/C=C/Cn1c(NC(=O)c2cc(C)nn2CC=C)nc2cc(C(N)=O)c3oc(C)cc3c21 [Example 18],175.49,
CCn1nc(C)cc1C(=O)Nc1nc2cc(C(N)=O)cc(OCCCN3CCOCC3)c2n1C/C=C/Cn1c(NC(=O)c2cc(C)nn2CC)nc2cc(C(N)=O)c3oc(C)cc3c21 [Example 19],90.48,anti-tumor effect (tumor volume growth curves) (CT26 colon cancer): significant anti-tumor effect; anti-tumor effect (tumor volume growth curves) (EMT6 breast cancer): significant anti-tumor effect
Cc1cc(C(=O)Nc2nc3cc(C(N)=O)cc(OCCCN4CCOCC4)c3n2C/C=C/Cn2c(NC(=O)c3cc(C)nn3CC(F)(F)F)nc3cc(C(N)=O)c4oc(C)cc4c32)n(CC(F)(F)F)n1 [Example 20],159.71,
"CCn1nc(C)cc1C(=O)Nc1nc2cc(C(N)=O)ccc2n1C/C=C/Cn1c(NC(=O)c2cc(C)nn2CC)nc2cc(C(N)=O)cc(OCCCO)c21 [GSK compound 1, reference compound]",80.54,
"CCn1nc(C)cc1C(=O)Nc1nc2cc(C(N)=O)cc(OC)c2n1C/C=C/Cn1c(NC(=O)c2cc(C)nn2CC)nc2cc(C(N)=O)cc(OCCCN3CCOCC3)c21 [GSK compound 3, reference compound]",70.83,
